According to patent US11491245B2, “Gadolinium chelate compounds for use in magnetic resonance imaging” (BAYER PHARMA AKTIENGESELLSCHAFT, priority 2015, dated 2022):
Where two headings read alike, the source gives them in different places.

Columns and labels:
[1] = Relaxivity measurements at 3.0 T; type: physicochemical; settings: 37° C., normalized to Gd, average ± standard deviation
Protocol: Relaxivity measurements at 3.0 T were performed with a whole body 3.0 T MRI Scanner (Philips Intera, Philips Healthcare, Hamburg, Germany) using a knee-coil (SENSE-Knee-8, Philips Healthcare, Hamburg, Germany). The sample tubes (CryoTubetm Vials, Thermo Scientific 1.8 mL, Roskilde, Denmark) were positioned in 3 rows of 4 and 5 tubes in a plastic holder in a box filled with water. The temperature was adjusted to 37° C. For the MRI sequence, the shortest possible echo-time (TE) with 7.46 milliseconds was used. The inversion times were chosen to optimize the sequence to measure T1 values corresponding to the estimated T1 range of all relaxation times of contrast media containing solutions. The following inversion times (TIs) were applied: 50, 100, 150, 200, 300, 500, 700, 1000, 1400, 2100, 3200, and 4500 milliseconds. The sequence was run with a constant relaxation delay of 3.4 seconds after the registration of the last echo (variable TR in the range from 3450 to 7900 milliseconds). For details of the fit procedure, see Rohrer et. al. (Invest. Radiol. 2005; 40, 11: 715-724). The experimental matrix of the phantom measurement was 320×320.
The relaxivities were evaluated using three different concentrations of each compound (3 concentrations between 0.05 and 2 mM).
(§1) The T1 relaxation times of the Example compounds 1-6 were measured in water and human plasma. Human plasma preparation: For each experiment fresh blood was taken from a volunteer using 10 mL citrate-tubes (Sarstedt S-Monovette 02.1067.001, 10 mL, Citrate). The 10 mL citrate-tubes were carefully inverted 10 times to mix blood and anticoagulant and centrifuged for 15 minutes at 1811 g at room temperature (Eppendorf, Centrifuge 5810R).
The relaxivities ri (where i=1, 2) were calculated on the basis of the measured relaxation rates Ri in water and plasma: Ri=Ri(0)+ri[CGd], where Ri(0) represent the relaxation rate of the respective solvent and CGd the concentration of the compound normalized to the Gadolinium (Table 2).

[2] = Relaxivity measurements at 1.41 T; type: physicochemical; settings: 1.41 T, 37° C., normalized to Gd; for r1 FBS: fetal bovine serum
Protocol: Relaxivity measurements at 1.41 T were performed using a MiniSpec mq60 spectrometer (Bruker Analytik, Karlsruhe, Germany) operating at a resonance frequency of 60 MHz and a temperature of 37° C. The T1 relaxation times were determined using the standard inversion recovery (IR) method with a fixed relaxation delay of at least 5×T1. The variable inversion time (TI) was calculated automatically by the standard software of the MiniSpec mq60 (8 steps). The T2 measurements were done by using a Carr-Purcell-Meiboom-Gill (CPMG) pulse sequence, applying a relaxation delay of at least 5×T1.
Each relaxivity measurement was performed using three different Gd concentrations (3 concentrations between 0.05 and 2 mM). The T1 and T2 relaxation times of the example compounds 1-10 were measured in different media for example in water, fetal bovine serum (FBS, Sigma, F7524) and human plasma.
as §1, with “Human” for “The T1 relaxation times of the Example compounds 1-6 were measured in water and human plasma. Human”
The relaxivities ri (where i=1, 2) were calculated on the basis of the measured relaxation rates Ri in water and plasma: Ri=Ri(0)+ri[CGd], where Ri(0) represent the relaxation rate of the respective solvent and CGd the concentration of the compound normalized to the Gadolinium. The Gadolinium concentrations of the investigated solutions were verified by Inductively Coupled Plasma Mass Spectroscopy (ICP-MS Agilent 7500a, Waldbronn, Germany).

Water solubility = type: physicochemical; settings: 10 mM Tris-HCl buffer, 20° C.
Protocol: The water solubility of the compounds was determined at room temperature (20° C.) in 0.5 mL buffer solution (10 mM Tris-HCl) in the microcentrifuge tubes (Eppendorf, 2.0 mL safe-lock caps). The solid compound was added stepwise to the buffer solution. The suspension was mixed using a shaker (Heidolph Reax 2000) and treated 5 min in an ultrasound bath (Bandelin, Sonorex Super RK255H) The suspension was stored at room temperature (20° C.) over night and final Gadolinium concentration was determined by inductively coupled plasma mass spectrometry (ICP-MS).

[3] = 37° C., cited from earlier work; for r1 FBS: bovine plasma
[4] = reference compounds (marked ^), 3.0 T, average ± standard deviation
[5] = reference compounds, 1.5 T, from Rohrer et al.

| Molecule | r1 human plasma [1] [L/mmol/s] | r1 water [1] [L/mmol/s] | r1 human plasma [2] [L/mmol/s] | r1 water [2] [L/mmol/s] | Solubility (Water solubility) [mmol Gd/L] | r1 FBS [2] [L/mmol/s] | r1 human plasma [3, 4] [L/mmol/s] | r1 water [3, 4] [L/mmol/s] | r1 FBS [3, 5] [L/mmol/s] | r1 water [3, 5] [L/mmol/s] |
| --- | --- | --- | --- | --- | --- | --- | --- | --- | --- | --- |
| C[C@H](C(=O)NCC(=O)NCC(CNC(=O)CNC(=O)[C@@H](C)N1CCN(CC(=O)[O-])CCN(CC(=O)[O-])CCN(CC(=O)[O-])CC1)(CNC(=O)CNC(=O)[C@@H](C)N1CCN(CC(=O)[O-])CCN(CC(=O)[O-])CCN(CC(=O)[O-])CC1)CNC(=O)CNC(=O)[C@@H](C)N1CCN(CC(=O)[O-])CCN(CC(=O)[O-])CCN(CC(=O)[O-])CC1)N1CCN(CC(=O)[O-])CCN(CC(=O)[O-])CCN(CC(=O)[O-])CC1.[Gd+3].[Gd+3].[Gd+3].[Gd+3] [Example 3-1, Tetragadolinium {4,10-bis(carboxylatomethyl)-7-[(2R,16R)-3,6,12,15-tetraoxo-16-[4,7,10-tris(carboxylatomethyl)-1,4,7,10-tetraazacyclododecan-1-yl]-9,9-bis({[({(2R)-2-[4,7,10-tris(carboxylatomethyl)-1,4,7,10-tetraazacyclododecan-1-yl]propanoyl}amino)-acetyl]amino}methyl)-4,7,11,14-tetraazaheptadecan-2-yl]-1,4,7,10-tetraazacyclo-dodecan-1-yl}acetate] | 10.1 ± 0.1 | 8.9 ± 0.2 | 10.4 | 9.5 | – | – | – | – | – | – |
| C[C@@H](C(=O)NCC(=O)NCC(CNC(=O)CNC(=O)[C@H](C)N1CCN(CC(=O)[O-])CCN(CC(=O)[O-])CCN(CC(=O)[O-])CC1)(CNC(=O)CNC(=O)[C@H](C)N1CCN(CC(=O)[O-])CCN(CC(=O)[O-])CCN(CC(=O)[O-])CC1)CNC(=O)CNC(=O)[C@H](C)N1CCN(CC(=O)[O-])CCN(CC(=O)[O-])CCN(CC(=O)[O-])CC1)N1CCN(CC(=O)[O-])CCN(CC(=O)[O-])CCN(CC(=O)[O-])CC1.[Gd+3].[Gd+3].[Gd+3].[Gd+3] [Example 3-2, Tetragadolinium {4,10-bis(carboxylatomethyl)-7-[(2S,16S)-3,6,12,15-tetraoxo-16-[4,7,10-tris(carboxylatomethyl)-1,4,7,10-tetraazacyclododecan-1-yl]-9,9-bis({[({(2S)-2-[4,7,10-tris(carboxylatomethyl)-1,4,7,10-tetraazacyclododecan-1-yl]propanoyl}amino)acetyl]-amino}methyl)-4,7,11,14-tetraazaheptadecan-2-yl]-1,4,7,10-tetraazacyclododecan-1-yl}-acetate] | 11.4 ± 0.2 | 9.0 ± 0.4 | 11.4 | 9.4 | – | – | – | – | – | – |
| CC(C(=O)NCC(=O)N1CCN(C(=O)CNC(=O)C(C)N2CCN(CC(=O)[O-])CCN(CC(=O)[O-])CCN(CC(=O)[O-])CC2)CCN(C(=O)CNC(=O)C(C)N2CCN(CC(=O)[O-])CCN(CC(=O)[O-])CCN(CC(=O)[O-])CC2)CCN(C(=O)CNC(=O)C(C)N2CCN(CC(=O)[O-])CCN(CC(=O)[O-])CCN(CC(=O)[O-])CC2)CC1)N1CCN(CC(=O)[O-])CCN(CC(=O)[O-])CCN(CC(=O)[O-])CC1.[Gd+3].[Gd+3].[Gd+3].[Gd+3] (centres unmarked) [Example 7, Tetragadolinium 2,2′,2″,2′″,2″″,2′″″,2″″″,2′″″″,2″″″″,2′″″″″,2″″″″″,2′″″″″″-{1,4,7,10-tetra-azacyclododecane-1,4,7,10-tetrayltetrakis[(2-oxoethane-2,1-diyl)imino(1-oxopropane-1,2-diyl)-1,4,7,10-tetraazacyclododecane-10,1,4,7-tetrayl]}dodecaacetate] | – | – | 12.1 | 10.8 | >1400 | 11.7 | – | – | – | – |
| O=C([O-])CN1CCN(CC(=O)[O-])CCN(CC(=O)NCC(CNC(=O)CN2CCN(CC(=O)[O-])CCN(CC(=O)[O-])CCN(CC(=O)[O-])CC2)(CNC(=O)CN2CCN(CC(=O)[O-])CCN(CC(=O)[O-])CCN(CC(=O)[O-])CC2)CNC(=O)CN2CCN(CC(=O)[O-])CCN(CC(=O)[O-])CCN(CC(=O)[O-])CC2)CCN(CC(=O)[O-])CC1.[Gd+3].[Gd+3].[Gd+3].[Gd+3] [Example 10, Tetragadolinium {4,10-bis(carboxylatomethyl)-7-[2-oxo-2-({3-({[4,7,10-tris(carboxylato-methyl)-1,4,7,10-tetraazacyclododecan-1-yl]acetyl}amino)-2,2-bis[({[4,7,10-tris-(carboxylatomethyl)-1,4,7,10-tetraazacyclododecan-1-yl]acetyl}amino)methyl]propyl}-amino)ethyl]-1,4,7,10-tetraazacyclododecan-1-yl}acetate] | – | – | 9.7 | 7.3 | >800 | 9.2 | – | – | – | – |
| CNC[C@H](O)[C@@H](O)[C@H](O)[C@H](O)CO.CNC[C@H](O)[C@@H](O)[C@H](O)[C@H](O)CO.O=C([O-])CN(CCN(CC(=O)[O-])CC(=O)O)CCN(CC(=O)[O-])CC(=O)O.[Gd+3] [Reference compound 2, gadopentetate dimeglumine] | – | – | – | – | – | – | 3.7 ± 0.2 | 3.1 ± 0.3 | 4.1 | 3.3 |
| CCOc1ccc(CC(CN(CCN(CC(=O)[O-])CC(=O)[O-])CC(=O)[O-])N(CC(=O)[O-])CC(=O)[O-])cc1.[Gd+3].[Na+].[Na+] (centres unmarked) [Reference compound 3, gadoxetate disodium] | – | – | – | – | – | – | 6.2 ± 0.3 | 4.3 ± 0.3 | 6.9 | 4.7 |
| Gadomer-17 [Reference compound 4] | – | – | – | – | – | – | 13 ± 1 | 13.0 ± 0.7 | 16 | 17.3 |
| Hexagadolinium 2,2′,2″,2′″,2″″,2′″″,2″″″,2′″″″,2″″″″,2′″″″″,2″″″″″,2′″″″″″,2″″″″″″, 2′″″″″″″,2″″″″″″″, 2′″″″″″″″,2″″″″″″″″,2′″″″″″″″″-{3,7,10-triazatricyclo[3.3.3.0^1,5]undecane-3,7,10-triyltris[carbonyl(3,6,11,14-tetraoxo-4,7,10,13-tetraazahexadecane-8,2,15-triyl)di-1,4,7,10-tetraazacyclododecane-10,1,4,7-tetrayl]}octadecaacetate [Example 8] | – | – | 14.6 | 12.5 | >1000 | 14.5 | – | – | – | – |
| Tetragadolinium 2,2′,2″,2′″,2″″,2′″″,2″″″,2′″″″,2″″″″,2′″″″″,2″″″″″,2′″″″″″-(3,7,9-triazabicyclo[3.3.1]nonane-3,7-diylbis{carbonyl-1,4-diazepane-6,1,4-triylbis[(2-oxoethane-2,1-diyl)-1,4,7,10-tetraazacyclododecane-10,1,4,7-tetrayl]})dodecaacetate [Example 9] | – | – | – | 7.4 | >800 | 8.8 | – | – | – | – |
